Among the data in ChEMBL document CHEMBL1127145, “Syntheses of novel 1-aminocyclopropane-1-carboxylic acid (ACC)-containing -lactams” (Bioorg Med Chem Lett, 1993) are Activity values, retold here.

In this experiment the target is Beta-lactamase TEM (Escherichia coli) (UniProt P62593). Nature of the experiment: Inhibitory activity towards beta-lactamase enzyme at 50 mM concentration or higher; Weak inhibitor.

The source made the active and inactive calls. The rule behind the calls is not given here.

Beta-lactamase TEM (Escherichia coli), sequence (P62593 whole entry): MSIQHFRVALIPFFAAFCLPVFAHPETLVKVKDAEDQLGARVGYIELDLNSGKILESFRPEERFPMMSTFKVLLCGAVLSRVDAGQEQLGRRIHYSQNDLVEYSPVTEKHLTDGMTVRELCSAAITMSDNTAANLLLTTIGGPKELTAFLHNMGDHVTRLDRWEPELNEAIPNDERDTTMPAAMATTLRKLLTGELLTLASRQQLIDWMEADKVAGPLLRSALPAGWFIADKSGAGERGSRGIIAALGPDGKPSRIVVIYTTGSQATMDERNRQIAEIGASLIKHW

On to `CC(=O)[C@@H]1[C@H](NC(=O)c2ccccc2)C(=O)N1C1(C(=O)O)CC1`, for which the result was inactive.
